Laboratory results taken from ChEMBL document CHEMBL1201862, “PubChem BioAssay data set” (2004).
Activity calls are given as the source filed them.

Key:
[1] = target: NAD-dependent protein deacylase sirtuin-5, mitochondrial (Homo sapiens, UniProt Q9NXA8); test: blockers of sirtuin-5 peptide desuccinylation – biochemical, fluorescence imaging, cherry-pick, set 6, dose response (AID 720597)
[2] = target: Muscarinic acetylcholine receptor M1 (Rattus norvegicus, UniProt P08482); test: concentration-dependent potentiation of ACh at M1 – cell-based, calcium mobilization, CHO-K1, ACh EC20, dose response (AID 2425); assay type: functional
[3] = viability of PTEN-deleted HCT116 cells – cell-based, HCT116 PTEN knockout, dose response (AID 1047); assay type: functional;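 note: HCT116 colon tumor cells with PTEN knocked out; cells exposed to compound for 60 hours before readout; potency for loss of cell viability measured by luminescence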
[4] = viability of HCT116 lacking mutant beta-catenin – cell-based, human colon tumor, dose response (AID 1045); assay type: functional;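 note: HCT116 colon tumor cells with beta catenin knocked out; cells exposed to compound for 60 hours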
[5] = Inhibition of T. cruzi Tulahuen strain amastigotes in L-6 muscle cells Measured in Cell-Based and Microorganism Combination System Using Plate Reader - 2138-03_Inhibitor_Dose_CherryPick_Activity.; assay type: functional; settings: Rattus norvegicus, L6
[6] = L6 myocyte viability loss – cell-based, plate reader, cherry-pick, cytotoxicity control, dose response (AID 651896); assay type: functional
[7] = Inhibition of Plasmodium falciparum NF54 Measured in Cell-Based System Using Plate Reader - 2138-11_Inhibitor_Dose_CherryPick_Activity.; assay type: functional
[8] = antileishmanial activity on axenic amastigotes – plate reader, cherry pick, dose response (AID 651891); assay type: functional, cell-based; settings: Leishmania donovani
[9] = intracellular Trypanosoma cruzi inhibitors in host cells – cell-based, plate reader, cherry-pick samples, set 3, dose response (AID 651818); assay type: functional;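 note: compounds incubated with infected cells for about four days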
[10] = African trypanosome bloodstream form growth inhibition – STIB900 strain, plate reader, cherry pick, dose response (AID 651893); assay type: functional, cell-based, Trypanosoma brucei rhodesiense; settings: Trypanosoma brucei
[11] = T. cruzi growth inhibition in host cells, dose response, cell-based, plate reader, dry powder, set 2 (AID 652275); assay type: functional
[12] = Trypanosoma cruzi replication inhibitors in host cells – cell-based, plate reader, dry powder samples, dose response (AID 651845); assay type: functional
[13] = anti-trypanosomal activity in BESM host cells – imaging, CA-I/72 strain, bovine embryo skeletal muscle, dry powder, dose response (AID 651885); assay type: functional, cell-based
Bcl-2-like protein 10 = target: T1, Bcl-2-like protein 10 (Homo sapiens, UniProt Q9HD36); test: Bcl-B/TR3 peptide binding disruption – biochemical, fluorescence polarization, FITC-TR3 peptide, selectivity assay for Bfl-1 inhibitor project, primary screen (AID 748);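 note: fluorescence polarization from a fluorescein-labelled TR3 peptide binding purified Bcl-B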
T1 sequence (Q9HD36 whole entry): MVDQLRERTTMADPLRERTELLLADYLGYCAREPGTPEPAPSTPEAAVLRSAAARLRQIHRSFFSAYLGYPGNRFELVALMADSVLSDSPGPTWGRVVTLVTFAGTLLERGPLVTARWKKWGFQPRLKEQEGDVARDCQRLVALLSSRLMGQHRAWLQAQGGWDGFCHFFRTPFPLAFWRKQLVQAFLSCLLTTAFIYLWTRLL

14-3-3 protein gamma = 14-3-3 protein gamma (Homo sapiens, UniProt P61981); test: modulators of 14-3-3 gamma client binding – dose response (AID 711); assay type: functional
[14] = target: DNA dC->dU-editing enzyme APOBEC-3A (Homo sapiens, UniProt P31941); test: Dose Response confirmation of small molecule APOBEC3A DNA Deaminase Inhibitors via a fluorescence-based single-stranded DNA deaminase assay. [Related pubchem assays (depositor defined):AID493011, AID493024]; assay type: functional
[15] = target: DNA dC->dU-editing enzyme APOBEC-3G (Homo sapiens, UniProt Q9HC16); assay type: functional;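 note: Dose-response counterscreen measuring inhibition of APOBEC3G DNA deaminase activity, run while confirming APOBEC3A inhibitors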
[16] = blockers of HIV-1 envelope-mediated cell-cell fusion – cherry-pick, dose response (AID 652057); assay type: functional, cell-based
[17] = blockers of HIV-1 ZM109 envelope-driven cell-cell fusion – HeLa effector, CEM target cells, luciferase, cherry-pick, dose response (AID 652058); assay type: functional, cell-based;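 note: luciferase signal from HIV-1 Env mediated cell-cell fusion of effector and target cells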
[18] = inhibition of Env-driven cell fusion – HIV entry, plate reader, dry powder, dose response (AID 687023); assay type: functional, cell-based
[19] = viability loss in CEM21 cells – cell-based, plate reader, dry powder, cytotoxicity control, dose response (AID 687026); assay type: functional
Estrogen receptor = target: T2, Estrogen receptor (Homo sapiens, UniProt P03372);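 note: potency for inhibiting coactivator peptide recruitment to the receptor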
T2 sequence (P03372 whole entry): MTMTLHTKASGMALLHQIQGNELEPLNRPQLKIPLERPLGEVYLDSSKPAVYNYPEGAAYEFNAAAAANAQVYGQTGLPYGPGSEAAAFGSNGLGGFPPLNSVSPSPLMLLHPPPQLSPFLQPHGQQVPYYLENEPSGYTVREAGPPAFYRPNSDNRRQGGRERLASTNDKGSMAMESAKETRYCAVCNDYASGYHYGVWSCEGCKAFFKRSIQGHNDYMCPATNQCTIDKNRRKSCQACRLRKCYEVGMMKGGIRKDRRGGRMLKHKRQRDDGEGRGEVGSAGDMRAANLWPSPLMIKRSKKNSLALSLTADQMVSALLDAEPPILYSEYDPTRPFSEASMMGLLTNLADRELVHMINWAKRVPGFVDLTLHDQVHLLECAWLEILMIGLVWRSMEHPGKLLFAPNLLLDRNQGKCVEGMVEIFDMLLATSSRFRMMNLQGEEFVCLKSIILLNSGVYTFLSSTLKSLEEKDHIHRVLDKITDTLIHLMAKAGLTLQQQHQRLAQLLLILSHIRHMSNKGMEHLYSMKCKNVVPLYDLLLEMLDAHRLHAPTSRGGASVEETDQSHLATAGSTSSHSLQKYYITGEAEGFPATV

Estrogen receptor beta [20] = target: T3, Estrogen receptor beta (Homo sapiens, UniProt Q92731);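 note: recombinant ER-beta bound to coactivator SRC1 peptide in presence of estradiol agonist; inhibitors block coactivator peptide binding and lower the FRET signal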
Estrogen receptor beta [21] = target: T3, Estrogen receptor beta; test: blockers of SRC-3 recruitment to ERβ – biochemical, ELISA, streptavidin-HRP readout, orthogonal assay, confirmation (AID 1060)
[22] = target: T4, Carboxy-terminal domain RNA polymerase II polypeptide A small phosphatase 1 (Homo sapiens, UniProt Q9GZU7); test: CTDSP1 inhibitors, concentration-response, biochemical, absorbance readout, ultra-high-throughput screen actives (AID 540297); assay type: functional
T4 sequence (Q9GZU7 whole entry): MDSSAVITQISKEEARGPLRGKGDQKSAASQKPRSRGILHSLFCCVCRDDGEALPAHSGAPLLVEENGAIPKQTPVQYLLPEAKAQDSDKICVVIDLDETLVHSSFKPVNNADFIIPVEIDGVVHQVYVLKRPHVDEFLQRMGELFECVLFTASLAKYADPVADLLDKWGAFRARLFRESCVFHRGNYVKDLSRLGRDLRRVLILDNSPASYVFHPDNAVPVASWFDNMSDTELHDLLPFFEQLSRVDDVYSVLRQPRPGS

[23] = target: E3 ubiquitin-protein ligase UHRF1 (Homo sapiens, UniProt Q96T88); test: Counterscreen for inhibitors of 5-meCpG-binding domain protein 2 (MBD2): TRFRET-based biochemical high throughput dose response assay to identify inhibitors of binding of ubiquitin-like with PHD and ring finger domains 1 (UHRF1) to methylated oligonucleotide.
[24] = target: RNA-editing ligase 1, mitochondrial (Trypanosoma brucei brucei, UniProt P86926); test: inhibition of trypanosome RNA editing ligase – biochemical, fluorescence, Trypanosoma brucei, dose response (AID 1117295); assay type: functional
[25] = Luminescence Cell-Based Dose Confirmation HTS to Identify Activators of 5'UTR Stem-Loop Driven Alpha-Synuclein mRNA Translation in H4 Neuroglioblastoma Cells. [Related pubchem assays: 1829 (Project Summary), 1814 (Primary HTS)]; assay type: functional
[26] = Luminescence Cell-Based Dose Response HTS to Identify Activators of Luciferase Translation or Activity in H4 […] Cells. [Related pubchem assays: 1829 (Project Summary), 1814 (Primary HTS)]; assay type: functional
H4 = test: Luminescence Cell-Based Dose Response HTS to Identify Activators of 5'UTR Stem-Loop Driven Prion Protein mRNA Translation in H4 Neuroglioblastoma Cells. [Related pubchem assays: 1829 (Project Summary), 1814 (Primary HTS)]; assay type: functional; settings: Homo sapiens
[27] = target: Mitogen-activated protein kinase 10 (Homo sapiens, UniProt P53779); test: Dose response biochemical screening assay for inhibitors of c-Jun N-Terminal Kinase 3 (JNK3). [Related pubchem assays: 746 ]
[28] = target: T5, Potassium channel subfamily K member 9 (Homo sapiens, UniProt Q9NPC2); test: TASK3 channel blockers, electrophysiology – cell-based, automated electrophysiology, selectivity assay for TASK1 (KCNK3) inhibitor project, SAR follow-up (AID 652210); assay type: functional
[29] = target: T5, Potassium channel subfamily K member 9; test: KCNK9 flux blockade, concentration-response – cell-based, FluxOR thallium flux, selectivity assay for TASK1 inhibitor project, SAR follow-up (AID 652211); assay type: functional;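 note: potency is for inhibitors of the channel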
[30] = target: Potassium channel subfamily K member 3 (Rattus norvegicus, UniProt O54912); test: SAR analysis for the identification of selective inhibitors of the two-pore domain potassium channel TASK1(KCNK3):Automated Electrophysiology.; assay type: functional
[31] = target: Potassium channel subfamily K member 3 (Homo sapiens, UniProt O14649); test: inhibition of human KCNK3 channel flux – CHO cells, FluxOR thallium flux, SAR follow-up (AID 652212); assay type: functional
[32] = cytotoxicity in MITF-independent A375 cells – cell-based, CellTiter-Glo luminescence, dry powder, set 4, counter-screen for MITF inhibitor project, dose response (AID 624364); assay type: functional; settings: A-375;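 note: A375 melanoma cells are MITF independent so this is a counter screen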
[33] = viability loss in MITF-independent A375 cells – cell-based, CellTiter-Glo luminescence, dry powder, set 2, counter-screen for MITF inhibitor project, dose response (AID 624489); assay type: functional; settings: A-375;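 note: actives are compounds lowering A375 viability meaning general cytotoxicity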
[34] = A Cell-Based Confirmatory Screen for Compounds that Inhibit VEEV, TC-83 (5).; assay type: functional
[35] = inhibitors of non-replicating M. tuberculosis, dose response, luciferase, dry powder (AID 651619); assay type: functional; settings: Mycobacterium tuberculosis
[36] = HeLa cell viability loss – plate reader, dry powder, cytotoxicity control, dose response (AID 651946); assay type: functional, cell-based
[37] = inhibitors of non-replicating M. tuberculosis, dose response, luciferase, dry powder (AID 651620); assay type: functional; settings: Mycobacterium tuberculosis
[38] = growth inhibition of replicating M. tuberculosis, dose response, counter-screen, dry powder, IC90 (AID 651617); assay type: functional; settings: Mycobacterium tuberculosis
[39] = target: T6, Low molecular weight phosphotyrosine protein phosphatase (Homo sapiens, UniProt P24666); test: inhibition of LMPTP-A enzymatic activity – biochemical, OMFP substrate, fluorescence intensity, set 2, dose response (AID 743307); assay type: functional
[40] = target: T6, Low molecular weight phosphotyrosine protein phosphatase; test: inhibition of human LMPTP enzyme activity – biochemical, absorbance, pNPP substrate, LMPTP-A isoform, set 2, orthogonal assay, dose response (AID 743308); assay type: functional

T3 sequence (Q92731 whole entry): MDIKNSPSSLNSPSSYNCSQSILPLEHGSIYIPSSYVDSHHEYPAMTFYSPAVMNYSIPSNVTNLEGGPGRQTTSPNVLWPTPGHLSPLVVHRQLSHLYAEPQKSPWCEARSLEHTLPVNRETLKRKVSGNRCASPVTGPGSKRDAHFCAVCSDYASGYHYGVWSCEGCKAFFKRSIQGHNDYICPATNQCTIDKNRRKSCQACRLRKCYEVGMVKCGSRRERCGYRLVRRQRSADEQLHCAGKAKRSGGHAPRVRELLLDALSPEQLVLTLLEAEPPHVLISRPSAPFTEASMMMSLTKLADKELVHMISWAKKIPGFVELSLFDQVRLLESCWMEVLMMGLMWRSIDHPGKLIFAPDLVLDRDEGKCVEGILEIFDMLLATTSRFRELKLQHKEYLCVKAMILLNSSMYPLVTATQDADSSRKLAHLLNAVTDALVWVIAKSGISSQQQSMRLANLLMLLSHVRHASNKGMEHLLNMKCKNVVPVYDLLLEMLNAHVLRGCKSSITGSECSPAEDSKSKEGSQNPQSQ
T6 sequence (P24666 whole entry, canonical isoform): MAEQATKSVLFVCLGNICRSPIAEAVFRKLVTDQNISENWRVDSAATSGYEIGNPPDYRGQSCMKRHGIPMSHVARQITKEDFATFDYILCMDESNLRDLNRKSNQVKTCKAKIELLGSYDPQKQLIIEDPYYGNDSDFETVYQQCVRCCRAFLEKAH
T5 sequence (Q9NPC2 whole entry): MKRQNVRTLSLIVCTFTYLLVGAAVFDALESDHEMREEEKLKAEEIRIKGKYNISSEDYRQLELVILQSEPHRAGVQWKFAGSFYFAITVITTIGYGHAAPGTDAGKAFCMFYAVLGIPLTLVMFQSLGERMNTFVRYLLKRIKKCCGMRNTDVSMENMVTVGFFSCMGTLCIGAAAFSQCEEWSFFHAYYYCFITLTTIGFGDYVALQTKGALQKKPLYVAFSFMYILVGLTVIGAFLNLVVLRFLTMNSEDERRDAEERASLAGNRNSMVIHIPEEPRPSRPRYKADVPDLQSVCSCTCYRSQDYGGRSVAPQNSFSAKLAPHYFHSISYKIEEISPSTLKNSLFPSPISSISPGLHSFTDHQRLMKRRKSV
NAD-dependent protein deacylase sirtuin-5, mitochondrial, sequence (Q9NXA8 whole entry): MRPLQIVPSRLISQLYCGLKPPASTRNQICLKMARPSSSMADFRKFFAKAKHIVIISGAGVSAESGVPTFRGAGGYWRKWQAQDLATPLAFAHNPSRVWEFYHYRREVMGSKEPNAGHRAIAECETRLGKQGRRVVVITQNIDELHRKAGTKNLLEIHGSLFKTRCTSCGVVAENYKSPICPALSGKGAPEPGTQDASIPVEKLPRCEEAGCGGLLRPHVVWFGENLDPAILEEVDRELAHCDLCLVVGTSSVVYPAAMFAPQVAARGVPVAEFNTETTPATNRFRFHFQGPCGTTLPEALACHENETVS
Muscarinic acetylcholine receptor M1, sequence (P08482 whole entry): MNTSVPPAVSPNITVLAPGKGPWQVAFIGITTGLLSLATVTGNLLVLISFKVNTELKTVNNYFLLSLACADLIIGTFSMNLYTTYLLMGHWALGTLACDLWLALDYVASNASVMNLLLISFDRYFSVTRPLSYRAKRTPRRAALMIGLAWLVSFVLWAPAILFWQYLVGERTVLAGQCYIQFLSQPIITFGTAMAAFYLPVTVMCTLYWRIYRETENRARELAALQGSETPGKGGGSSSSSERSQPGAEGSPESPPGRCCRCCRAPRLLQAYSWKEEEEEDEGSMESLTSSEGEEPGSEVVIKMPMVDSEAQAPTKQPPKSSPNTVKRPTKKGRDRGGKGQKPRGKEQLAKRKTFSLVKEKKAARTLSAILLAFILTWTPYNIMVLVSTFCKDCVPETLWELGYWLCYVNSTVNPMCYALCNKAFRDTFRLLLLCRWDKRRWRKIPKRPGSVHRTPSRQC
Potassium channel subfamily K member 3 (Homo sapiens, UniProt O14649), sequence (O14649 whole entry): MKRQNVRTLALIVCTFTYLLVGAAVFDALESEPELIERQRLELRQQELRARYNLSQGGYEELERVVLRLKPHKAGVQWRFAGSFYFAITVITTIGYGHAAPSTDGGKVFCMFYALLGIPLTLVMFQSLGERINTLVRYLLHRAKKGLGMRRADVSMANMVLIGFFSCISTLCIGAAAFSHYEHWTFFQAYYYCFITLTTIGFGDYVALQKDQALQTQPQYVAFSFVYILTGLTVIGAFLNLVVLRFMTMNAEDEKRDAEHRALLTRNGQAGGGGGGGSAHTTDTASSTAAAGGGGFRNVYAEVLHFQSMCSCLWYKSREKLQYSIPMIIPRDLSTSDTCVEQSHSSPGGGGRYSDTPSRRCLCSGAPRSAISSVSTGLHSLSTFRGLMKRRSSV
Potassium channel subfamily K member 3 (Rattus norvegicus, UniProt O54912), sequence (O54912 whole entry, the tested form may be a part): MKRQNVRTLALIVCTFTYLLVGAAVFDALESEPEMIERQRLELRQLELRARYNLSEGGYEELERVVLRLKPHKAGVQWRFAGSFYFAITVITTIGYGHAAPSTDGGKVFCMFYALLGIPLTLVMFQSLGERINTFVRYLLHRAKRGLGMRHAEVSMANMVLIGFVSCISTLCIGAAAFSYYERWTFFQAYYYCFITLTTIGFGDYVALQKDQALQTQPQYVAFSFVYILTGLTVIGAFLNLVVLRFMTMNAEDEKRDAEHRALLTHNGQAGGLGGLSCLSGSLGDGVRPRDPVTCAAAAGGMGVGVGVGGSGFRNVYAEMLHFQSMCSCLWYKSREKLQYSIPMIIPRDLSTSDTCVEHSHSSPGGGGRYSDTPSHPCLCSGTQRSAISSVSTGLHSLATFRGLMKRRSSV
14-3-3 protein gamma, sequence (P61981 whole entry): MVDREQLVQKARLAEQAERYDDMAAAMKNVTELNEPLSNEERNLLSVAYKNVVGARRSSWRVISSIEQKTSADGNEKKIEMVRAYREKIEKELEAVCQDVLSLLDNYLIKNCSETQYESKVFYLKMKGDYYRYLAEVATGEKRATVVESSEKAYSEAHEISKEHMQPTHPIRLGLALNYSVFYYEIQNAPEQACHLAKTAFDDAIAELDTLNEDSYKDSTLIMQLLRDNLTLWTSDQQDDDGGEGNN
E3 ubiquitin-protein ligase UHRF1, sequence (Q96T88 whole entry, the tested form may be a part): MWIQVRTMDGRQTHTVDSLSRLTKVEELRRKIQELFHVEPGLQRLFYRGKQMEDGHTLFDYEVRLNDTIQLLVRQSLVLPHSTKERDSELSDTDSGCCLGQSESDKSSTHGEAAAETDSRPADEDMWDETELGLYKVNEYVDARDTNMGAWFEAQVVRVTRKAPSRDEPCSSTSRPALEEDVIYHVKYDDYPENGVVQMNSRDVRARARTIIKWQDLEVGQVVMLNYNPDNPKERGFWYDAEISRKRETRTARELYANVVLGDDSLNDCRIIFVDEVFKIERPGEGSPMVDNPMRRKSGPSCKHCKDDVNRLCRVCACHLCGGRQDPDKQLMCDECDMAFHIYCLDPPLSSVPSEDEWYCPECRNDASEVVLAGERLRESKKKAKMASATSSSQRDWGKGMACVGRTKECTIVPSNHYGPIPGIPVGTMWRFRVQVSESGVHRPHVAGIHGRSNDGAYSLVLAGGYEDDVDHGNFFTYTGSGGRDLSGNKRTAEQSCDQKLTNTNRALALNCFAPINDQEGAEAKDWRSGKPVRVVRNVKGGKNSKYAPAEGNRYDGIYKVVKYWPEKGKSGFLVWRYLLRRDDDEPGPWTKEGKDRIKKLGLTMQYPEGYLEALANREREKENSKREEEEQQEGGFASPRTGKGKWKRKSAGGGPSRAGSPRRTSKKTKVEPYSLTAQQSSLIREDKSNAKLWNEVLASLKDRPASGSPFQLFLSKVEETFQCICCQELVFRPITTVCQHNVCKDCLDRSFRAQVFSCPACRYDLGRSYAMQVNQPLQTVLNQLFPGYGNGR
Mitogen-activated protein kinase 10, sequence (P53779 whole entry): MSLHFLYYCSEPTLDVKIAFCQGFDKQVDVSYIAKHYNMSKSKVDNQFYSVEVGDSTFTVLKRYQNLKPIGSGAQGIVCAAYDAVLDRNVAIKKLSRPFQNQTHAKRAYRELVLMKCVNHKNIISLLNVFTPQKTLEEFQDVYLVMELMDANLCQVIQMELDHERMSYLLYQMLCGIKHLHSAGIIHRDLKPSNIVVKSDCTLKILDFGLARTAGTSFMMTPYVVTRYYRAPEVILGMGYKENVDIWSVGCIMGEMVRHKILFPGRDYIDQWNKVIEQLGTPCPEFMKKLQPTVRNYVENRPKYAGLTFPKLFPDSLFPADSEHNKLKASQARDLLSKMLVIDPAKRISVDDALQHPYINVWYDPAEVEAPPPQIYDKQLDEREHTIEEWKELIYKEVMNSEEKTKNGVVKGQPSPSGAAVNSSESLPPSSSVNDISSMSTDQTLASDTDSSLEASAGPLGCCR
RNA-editing ligase 1, mitochondrial, sequence (P86926 whole entry): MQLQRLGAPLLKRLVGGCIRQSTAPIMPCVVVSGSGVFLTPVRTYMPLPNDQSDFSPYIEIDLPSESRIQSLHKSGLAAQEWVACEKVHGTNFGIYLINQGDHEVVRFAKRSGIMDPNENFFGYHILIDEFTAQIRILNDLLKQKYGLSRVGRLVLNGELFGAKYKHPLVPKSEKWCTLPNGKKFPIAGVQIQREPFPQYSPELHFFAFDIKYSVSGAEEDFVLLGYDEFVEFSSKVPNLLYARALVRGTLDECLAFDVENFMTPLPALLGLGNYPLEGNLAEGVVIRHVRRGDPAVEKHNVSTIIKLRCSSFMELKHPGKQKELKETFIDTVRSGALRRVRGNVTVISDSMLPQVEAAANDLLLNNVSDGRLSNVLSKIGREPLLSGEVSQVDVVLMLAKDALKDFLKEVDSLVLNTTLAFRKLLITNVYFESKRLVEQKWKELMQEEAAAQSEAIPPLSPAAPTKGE
DNA dC->dU-editing enzyme APOBEC-3A, sequence (P31941 whole entry): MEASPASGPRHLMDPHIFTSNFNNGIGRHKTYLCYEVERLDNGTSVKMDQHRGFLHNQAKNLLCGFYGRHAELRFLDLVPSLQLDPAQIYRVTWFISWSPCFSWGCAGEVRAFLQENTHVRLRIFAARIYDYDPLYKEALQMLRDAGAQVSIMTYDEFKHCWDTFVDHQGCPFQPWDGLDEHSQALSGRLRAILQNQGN

## CCCNC(=O)Nc1ccc2c(c1)C(=O)N(C)[C@H]1CC[C@H](CC(=O)NCC3CCCCC3)O[C@@H]1CO2
[1]
  AC50: > 30 µM (inactive)

## Cc1cc(NC(=O)CS(=O)(=O)c2cn(Cc3ccccc3Cl)c3ccccc23)no1
[2]
  EC50: 9.13 µM (active)
[3]
  EC50: 41.3 µM (active)
[4]
  EC50: 72.8 µM (active)

## C[C@@H]1CN([C@H](C)CO)C(=O)c2cccc(NC(=O)c3ccncc3)c2O[C@H]1CN(C)Cc1ccccc1
[5]
  IC50: 5.64 µM (inactive)
[6]
  IC50: > 100 µM (inactive)
[7]
  IC50: 5.64 µM (inactive)
[8]
  IC50: > 100 µM (inactive)
[9]
  AC50: 0.08 µM (active)
[10]
  IC50: 6.14 µM (inactive)
[11]
  AC50: 0.00561 µM (active)
[12]
  AC50: 0.064 µM (active)
[13]
  IC50: 0.0144 µM (active)

## Cc1nc2ccc(C(=O)O)cc2c2c1CC(C)S2 (centres undefined)
Bcl-2-like protein 10
  IC50: > 100 µM (inactive)
14-3-3 protein gamma
  IC50: 25.7 µM (active)
[14]
  IC50: 16.2 µM (active)
[15]
  IC50: 26.3 µM (active)

## C[C@@H]1CN([C@@H](C)CO)C(=O)c2cccc(NS(=O)(=O)c3ccc(F)cc3)c2O[C@@H]1CN(C)Cc1ccc(C(F)(F)F)cc1
[16]
  AC50: 0.295 µM (active)
[17]
  AC50: 0.451 µM (active)
[18]
  AC50: 4.05 µM (active)
[19]
  AC50: 43.9 µM (active)

## O=C(Cc1coc2cc3c(cc12)CCC3)OCc1cc(=O)n2c(n1)sc1ccccc12
Estrogen receptor
  IC50: 4.83 µM (active)
Estrogen receptor beta [20]
  IC50: 3.05 µM (active)
Estrogen receptor beta [21]
  IC50: 17.6 µM (not active)
[22]
  IC50: 4.58 µM (active)
[23]
  IC50: > 43.8 µM (inactive)

## COC(=O)C1=C(C)N(Cc2ccc(C(F)(F)F)cc2)C(NCc2ccc(C(F)(F)F)cc2)=NC1c1ccccc1C(F)(F)F (centres undefined)
[24]
  IC50: > 96.6 µM (inactive)

## CC1=CC(=C2C(=O)c3ccccc3C2=O)C=C(C)N1C
[25]
  EC50: 53.3 µM (active)
[26]
  EC50: 29.3 µM (active)
H4
  EC50: 57.2 µM (active)
[27]
  IC50: 42.1 µM (not active)

## CCOc1ccccc1NC(=O)c1cccc(NC(=O)CC2CCCC2)c1
[28]
  IC50: 3.9 µM (active)
[29]
  IC50: 4.17 µM (active)
[30]
  IC50: 0.32 µM (active)
[31]
  IC50: 0.161 µM (active)

## CC(=O)NC1=C(c2ccc3c(c2)oc2ccccc23)C(=O)c2ccccc2C1=O
[32]
  AC50: 26.9 µM (active)
[33]
  AC50: 14.9 µM (active)

## O=c1c2cc([N+](=O)[O-])ccc2nc(CN2CCCCC2)n1-c1ccccc1F
[34]
  IC50: 4.7 µM (active)

## Cc1cccc(CSc2nnc(-c3ccc(Cl)cc3)o2)n1
[35]
  IC90: 2 µM (active)
[36]
  AC50: > 24 µM (inactive)
[37]
  IC90: 2 µM (active)
[38]
  IC90: 125 µM (active)

## c1ccc(-c2cc(NCCCN3CCCCC3)c3ccccc3n2)cc1
[39]
  IC50: 1.56 µM (active)
[40]
  IC50: 2.98 µM (active)
